Measurements published in patent publication US20230190741A1, “LONG-LASTING REABSORBABLE SUBCUTANEOUS IMPLANT WITH SUSTAINED RELEASE OF PRE-CONCENTRATED PHARMACOLOGICALLY ACTIVE SUBSTANCE IN POLYMER FOR THE TREATMENT OF ERECTILE DYSFUNCTION AND BENIGN PROSTATIC HYPERPLASIA” (priority 2020, published 2023).

Columns and labels:
[1] = system: erectile dysfunction; conditions: injection 10 mcg or 20 mcg applied directly to the penis, cited from earlier work
[2] = half-life of the oral drug; assay type: in vivo; conditions: tadalafil vs sildenafil
[3] = oral administration; cited from earlier work

CCCCC[C@H](O)/C=C/[C@H]1[C@H](O)CC(=O)[C@@H]1CCCCCCC(=O)O [alprostadil]
duration of effect ([1]; depending on the patient): ≤ 2 h | time until effect after application [1]: 20 min

CN1CC(=O)N2[C@H](c3ccc4c(c3)OCO4)c3[nH]c4ccccc4c3C[C@@H]2C1=O [tadalafil]
half-life relative to half-life of sildenafil [2]: 4.38 times | loss of drug ingested (first-pass metabolism plus absorptive process) [3]: ≤ 50%
